Data published in paper PMC10458698, “Characterization of the interferences of systemic azole antifungal drugs with adrenal steroid biosynthesis using H295R cells and enzyme activity assays” (Current Research in Toxicology, 2023).
Values joined by “and” are separate entries in the source; they are usually repeats but may differ in a detail not shown here. Equal entries are not always repeated.

Legend:
CYP21A2 = biological target: T1, CYP21A2 (Homo sapiens, UniProt P08686); assay: CYP21A2 activity assay, microsomes of transfected COS-1 cells; assay type: biochemical; details: cell-free; for IC50: progesterone 500 nM, 10 min
T1 construct: host or cells: COS-1 cells, transient transfection, microsomal fraction
T1 sequence (P08686 1-495): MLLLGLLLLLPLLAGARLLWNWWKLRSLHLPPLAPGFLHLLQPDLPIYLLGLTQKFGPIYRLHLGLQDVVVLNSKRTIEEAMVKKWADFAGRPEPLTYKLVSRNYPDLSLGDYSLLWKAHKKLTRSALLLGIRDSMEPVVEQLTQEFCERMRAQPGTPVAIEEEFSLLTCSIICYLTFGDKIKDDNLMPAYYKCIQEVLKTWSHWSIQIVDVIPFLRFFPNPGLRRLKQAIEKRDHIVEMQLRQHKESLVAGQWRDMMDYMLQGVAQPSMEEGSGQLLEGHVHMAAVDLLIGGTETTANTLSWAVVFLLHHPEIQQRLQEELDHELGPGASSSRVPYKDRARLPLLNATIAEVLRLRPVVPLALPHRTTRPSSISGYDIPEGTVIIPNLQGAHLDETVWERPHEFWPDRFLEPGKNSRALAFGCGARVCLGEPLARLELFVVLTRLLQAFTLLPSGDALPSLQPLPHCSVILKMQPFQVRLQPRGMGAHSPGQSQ
Procedure: Microsomes were prepared from COS-1 cells transiently transfected with plasmids for either CYP17A1 and POR for CYP17A1-hydroxylase assay (human CYP17A1 was available in our own plasmid collection after cloning into pcDNA3, POR was ordered from Genescript, Piscataway, USA, clone ID OHu25584C), CYP17A1, POR and cytochrome b5 for CYP17A1 17,20-lyase assay (cytochrome b5 was from Genescript, clone ID OHu09495D), POR and CYP21A2 (Genescript, CYP21A2 clone ID OHu18602D), or 3β-HSD2 (Genescript, clone ID OHu14034D). Transfection was performed using PEI and equal amounts of required plasmids with a total DNA amount of 8 µg per transfection of 3,000,000 cells. After overnight incubation, cells were washed with prewarmed PBS before adding ice-cold PBS. Cells were collected and centrifuged at 600 × g for 4 min at 4 °C, washed with ice cold PBS and centrifuged again. The pellet was resuspended in a resuspension buffer (20 mM Tris, pH 7.5, 50 mM KCl, 2 mM MgCl2, 0.25 M sucrose). Cells were disrupted with 30 S by a glass potter (2 cm^3) as described above. The homogenate was centrifuged for 20 min at 12,000 × g and 4 °C. Microsomes were pelleted by ultracentrifugation at 100,000 × g for 1 h at 4 °C. The pellet was resuspended in reaction buffer and the protein concentration determined using the Pierce Protein BCA kit as described above.
Microsomal protein (250 µg/mL) was preincubated with 1 mM NADPH and the compound of interest in reaction buffer for 10 min. The reaction was started by adding progesterone spiked with a radioactive tracer (final activity 0.025 mCi) to a final concentration of 500 nM. After 10 min of incubation at 37 °C the reaction was stopped by adding enzyme substrate and product at a final concentration of 1 mM in methanol, followed by shock-freezing in liquid nitrogen. Steroids were separated by thin layer chromatography on SIL G-25 UV254 TLC plates (Macherey-Nagel, Düren, Germany) using chloroform and ethyl acetate (1:4; v:v). Bands were excised and radiolabeled steroids analyzed by scintillation counting using […] Plus cocktail (Zinsser Analytic, Frankfurt am Main, Germany) and a β-counter (Packard, Connecticut, USA). Relative conversion was calculated based on total counts.

CYP11A1 = biological target: T2, CYP11A1 (Homo sapiens, UniProt P05108); parameters: method as in Mast et al., 2013, Vanden Bossche et al., 1986; details: in words, ref Mast et al., 2013, Vanden Bossche et al., 1986; cited from earlier work
T2 construct: host or cells: V79-4 cells (Chinese hamster), transient transfection, mitochondrial fraction
T2 sequence (P05108 40-521): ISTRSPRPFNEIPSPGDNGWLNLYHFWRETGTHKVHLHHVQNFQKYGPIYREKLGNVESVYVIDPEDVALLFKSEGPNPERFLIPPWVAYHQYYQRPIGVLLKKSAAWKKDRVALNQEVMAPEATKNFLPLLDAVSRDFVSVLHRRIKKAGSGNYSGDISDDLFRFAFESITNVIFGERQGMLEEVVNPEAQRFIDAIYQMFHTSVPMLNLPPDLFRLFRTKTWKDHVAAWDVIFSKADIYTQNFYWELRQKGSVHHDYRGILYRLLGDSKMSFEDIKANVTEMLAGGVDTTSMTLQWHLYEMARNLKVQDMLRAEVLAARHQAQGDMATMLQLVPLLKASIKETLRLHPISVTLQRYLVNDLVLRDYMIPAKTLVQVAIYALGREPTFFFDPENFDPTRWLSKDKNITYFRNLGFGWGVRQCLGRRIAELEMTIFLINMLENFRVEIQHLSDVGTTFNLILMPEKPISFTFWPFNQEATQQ

[1] = parameters: method as in Nguyen et al., 2020; details: ref Nguyen et al., 2020; cited from earlier work

For `CC[C@@H]([C@H](C)O)n1ncn(-c2ccc(N3CCN(c4ccc(OC[C@@H]5CO[C@@](Cn6cncn6)(c6ccc(F)cc6F)C5)cc4)CC3)cc2)c1=O` [posaconazole, Posaconazole], the IC50 (CYP21A2) is given as greater than 10 µM, the “CYP11A1 inhibition in earlier studies” value (CYP11A1) is given as “moderate CYP11A1 inhibition” and the “serum concentration with increased risk of pseudohyperaldosteronism” value [1] is given as greater than 2500 ng/mL.

In the case of `C[C@@H](c1nc(-c2ccc(C#N)cc2)cs1)[C@](O)(Cn1cncn1)c1cc(F)ccc1F` [isavuconazole], the “inhibition of CYP21A2” value (CYP21A2; in words) is reported as “weak inhibition” and the IC50 (CYP21A2) is reported as 8.1 µM and 8.14 µM.

In the case of `CCC(C)n1ncn(-c2ccc(N3CCN(c4ccc(OCC5COC(Cn6cncn6)(c6ccc(Cl)cc6Cl)O5)cc4)CC3)cc2)c1=O` (stereo not shown) [itraconazole], the IC50 (CYP21A2) is given as greater than 10 µM and the “CYP11A1 inhibition in earlier studies” value (CYP11A1) is given as “no substantial inhibition”.
